In test [1] the target is Serine/threonine-protein kinase pim-2 (Homo sapiens, UniProt Q9P1W9). Kind of test: Kinase Inhibition Assay. The conditions noted are these: pH 7.5; 25 °C. The protocol: (§1) Phosphorylation reactions were monitored using a coupled-enzyme assay in which ADP production was coupled to NADH oxidation by pyruvate kinase and lactate dehydrogenase. The assay was carried out in a buffer containing phosphoenolpyruvate, NADH, pyruvate kinase, lactate dehydrogenase, and PIM kinase. The reaction was monitored at 340 nm at 25 deg C on a Spectramax spectrophotometer (Molecular Devices) and started by addition ATP after a 10-min preincubation at 25 deg C. A recognition peptide of the PIM1 substrate p21 ([…]) was used. DMSO-dissolved inhibitors were added at the preincubation period resulting in a 2% final DMSO. Kinetic analysis was done by nonlinear regression fitting using the program KaleidaGraph (Synergy Software).

Test [2] concerns the target Serine/threonine-protein kinase pim-1 (Homo sapiens, UniProt P11309). The test can be described thus: Kinase Inhibition Assay. The conditions noted are these: pH 7.5; 25 °C. The protocol:
as §1

pIC50: −log10 of the molar value.

Chain of Serine/threonine-protein kinase pim-2 (Q9P1W9 whole entry): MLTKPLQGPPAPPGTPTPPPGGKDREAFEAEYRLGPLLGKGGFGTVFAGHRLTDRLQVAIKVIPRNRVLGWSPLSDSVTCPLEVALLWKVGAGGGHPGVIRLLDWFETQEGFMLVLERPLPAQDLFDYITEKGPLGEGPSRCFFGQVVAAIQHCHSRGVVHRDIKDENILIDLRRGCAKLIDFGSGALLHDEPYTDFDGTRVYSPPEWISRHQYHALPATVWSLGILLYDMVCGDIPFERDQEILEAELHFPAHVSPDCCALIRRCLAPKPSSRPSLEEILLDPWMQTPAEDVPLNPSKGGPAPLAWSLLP
Chain of Serine/threonine-protein kinase pim-1 (P11309 whole entry): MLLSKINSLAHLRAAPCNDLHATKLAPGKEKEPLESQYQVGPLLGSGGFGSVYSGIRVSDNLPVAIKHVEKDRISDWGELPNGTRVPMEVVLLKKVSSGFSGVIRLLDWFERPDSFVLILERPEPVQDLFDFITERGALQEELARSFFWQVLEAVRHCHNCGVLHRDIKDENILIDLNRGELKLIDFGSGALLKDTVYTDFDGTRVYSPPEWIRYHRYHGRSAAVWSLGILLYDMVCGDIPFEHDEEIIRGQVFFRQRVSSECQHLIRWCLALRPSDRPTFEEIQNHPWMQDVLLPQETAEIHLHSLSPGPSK

In the case of `CC(=O)c1cccc(-c2cnc3ccc(NCC4CC4)nn23)c1` [1-(3-{6-[(cyclopropylmethyl)amino]imidazo[1,2-a]pyridazin-3-yl}phenyl)ethan-1-one], the pIC50 (in general, −log10 of the IC50, conventionally taken in molar units) in test [1] was 5.74. With `Clc1cccc(-c2cnc3ccc(NC4CCOCC4)nn23)c1` [K00152], the pIC50 was 7.30 in test [2] and 5.15 in test [1]. For `CCC(CO)Nc1ccc2ncc(-c3ccc(F)c(Cl)c3)n2n1` (stereo not given) [K00486], in that order: 7.40 and 5.60.

The record behind these values is BindingDB's records for doi:10.1158/0008-5472.CAN-07-0320 (University Hospital Basel, 2007).
